# Experimental data published in patent US20080109040A1, “METHOD OF TREATING ARRHYTHMIAS” (priority 2002, published 2008).
# System: anesthetized dog
# Experiment: QT prolongation and arrhythmia induction in anesthetized dog with AV block and phenylephrine challenge
# Experimental: Dogs were pretreated with Atravet (0.07 mg/kg sc) and then 15 minutes later anesthetized with ketamine (5.3 mg/kg iv) and valium (0.25 mg/kg iv) followed by isoflurane (1-2%), intubated and subjected to mechanical ventilation. They were then subjected to AV block with radiofrequency ablation. A median sternotomy was performed and catheters were inserted into a femoral artery for blood pressure (BP) recording and into both femoral veins for infusion of test drugs. Bipolar electrodes were inserted into both ventricles for programmed stimulation determination of refractory periods (extrastimulus technique), as well as for evaluation of QT interval and QRS duration at various controlled basic cycle lengths (BCLs). TdP was induced by challenges of phenylephrine, which were given as bolus intravenous doses of 10, 20, 30, 40 and 50 μg/kg. After each dose, the ECG was monitored continuously to detect arrhythmias. […] Test drug effects were evaluated as per protocols below.
# Data are presented as the mean ±S.E.M. Statistical comparisons were made with Student's t test. A 2-tailed probability<0.05 was taken to indicate statistical significance. In data tables, * denotes P<0.05, **P<0.01.
# Group 2 (6 dogs): Five dogs received ranolazine as a 0.5 mg/kg iv load followed by a first, a second and a third continuous iv infusion of 1.0, 3.0 and 15 mg/kg/hr, respectively. One dog received ranolazine as a 1.5 mg/kg iv load followed by infusions of 15 and 30 mg/kg/hr. […] The phenylephrine challenges were then given, with all doses given at each drug infusion rate, and any arrhythmias monitor.
# [1] = ranolazine 0.5 mg/kg iv load + 1.0 mg/kg/hr, BCL 300
# [2] = ranolazine 0.5 mg/kg iv load + 1.0 mg/kg/hr, BCL 400
# [3] = ranolazine 0.5 mg/kg iv load + 1.0 mg/kg/hr, BCL 600
# [4] = ranolazine 3.0 mg/kg/hr, BCL 300
# [5] = ranolazine 3.0 mg/kg/hr, BCL 400
# [6] = ranolazine 3.0 mg/kg/hr, BCL 600
# [7] = ranolazine 3.0 mg/kg/hr, BCL 1000
# [8] = ranolazine 15 mg/kg/hr, BCL 400
# [9] = ranolazine 15 mg/kg/hr, BCL 600
# [10] = ranolazine 15 mg/kg/hr, BCL 1000
structure (smiles),measurement,setting,value
"COc1ccccc1OCC(O)CN1CCN(CC(=O)Nc2c(C)cccc2C)CC1 (racemic) [ranolazine, N-(2,6-dimethylphenyl)-4-[2-hydroxy-3-(2-methoxyphenoxy)propyl]-1-piperazineacetamide]",Induction of torsades de pointes and/or ventricular fibrillation,"dog, in vivo",unable to induce any
same,Maximum increase of QT interval,"dog, in vivo, 3 mg/kg, 30 min",about 10%
same,Arrhythmia occurrence,"dog, in vivo, 30 min","VT 13 beats,"
same,Mean ERP-LV + SE,[1],185.00 ± 8.1 ms
same,Mean ERP-RV + SE,[1],182.84 ± 6.67 ms
same,Mean ERP-LV + SE,[2],204.38 ± 11.01 ms
same,Mean ERP-RV + SE,[2],201.50 ± 6.45 ms
same,Mean ERP-LV + SE,[3],233.13 ± 12.43 ms
same,Mean ERP-RV + SE,[3],227.50 ± 8.87 ms
same,Mean ERP-LV + SE,"ranolazine 0.5 mg/kg iv load + 1.0 mg/kg/hr, BCL 1000",259.38 ± 18.18 ms
same,Outcome of the high-dose dog,"ranolazine 1.5 mg/kg iv load, 15 then 30 mg/kg/hr infusion",died of pump failure
same,Mean ERP-LV + SE,[4],189.38 ± 8.32 ms
same,Mean ERP-RV + SE,[4],181.00 ± 2.32 ms
same,Mean ERP-LV + SE,[5],211.45 ± 9.2 ms
same,Mean ERP-RV + SE,[5],199.66 ± 3.75 ms
same,Mean ERP-LV + SE,[6],238.13 ± 13.25 ms
same,Mean ERP-RV + SE,[6],224.50 ± 4.83 ms
same,Mean ERP-LV + SE,[7],265.43 ± 19.42 ms
same,Mean ERP-RV + SE,[7],249.50 ± 6.19 ms
same,Mean ERP-RV + SE,"ranolazine 15 mg/kg/hr, BCL 300",185.00 ± 5.76 ms
same,Mean ERP-LV + SE,[8],215.00 ± 10.05 ms
same,Mean ERP-RV + SE,[8],206.50 ± 5.79 ms
same,Mean ERP-LV + SE,[9],237.50 ± 14.11 ms
same,Mean ERP-RV + SE,[9],229.50 ± 6.19 ms
same,Mean ERP-LV + SE,[10],260.43 ± 19.32 ms
same,Mean ERP-RV + SE,[10],253.16 ± 7.77 ms
same,Mean increase of ERP,ranolazine infusions,≤ 10%
